Laboratory results as given in patent US20210252008A1, “BIARYL COMPOSITIONS AND METHODS FOR MODULATING A KINASE CASCADE” (Athenex, Inc., priority 2004, published 2021).

Assays:
Paxillin Y-31 = test: Intracellular phosphorylation levels: Paxillin Y-31; assay type: cell-based; conditions: c-Src/NIH-3T3 cells; FIG. 4
Experimental: (§1) HT29 (colon cancer) and c-Src527F/NIH-3T3 (Src transformed) cell lines were treated with KX2-391 or with AstraZeneca's ATP competitive Src inhibitor AZ28. AZ28 serves as a positive comparator to show what a validated Src inhibitor should do in these assays. After treatment with compound, cells were lysed, subjected to PAGE and probed with a battery of antibodies. […] In addition, off-target protein phosphorylation was also investigated. Further, induction of apoptosis was evaluated via Caspase 3 cleavage. Multiple doses of each compound were tested because the trends in response to increasing drug concentration are the most reliable indicator of activity.
(§2) The same range of multiples of the GI50 for AZ28 in these two cell lines was run as a comparison.
Note: paxillin Y-31 was not detected in HT29 cells with or without added drug.

FAK Y397 = test: FAK autophosphorylation in cells; assay type: cell-based; conditions: c-Src527F/NIH3T3 cells; FIG. 8
Experimental: as §1, §2
FAK Y397 is mainly a FAK autophosphorylation site and only a poor Src transphorylation site. AZ28 is […] FAK inhibitor (see isolated enzyme data in Table 5). However, no inhibition of FAK autophosphorylation in c-Src527F/NIH3T3 cells is seen with KX-391.

CHK1(h) = CHK1(h) (Homo sapiens, UniProt O14757); test: Inhibition of isolated kinases; assay type: biochemical; conditions: compound @ 10 μM
CHK1(h), sequence (O14757 whole entry): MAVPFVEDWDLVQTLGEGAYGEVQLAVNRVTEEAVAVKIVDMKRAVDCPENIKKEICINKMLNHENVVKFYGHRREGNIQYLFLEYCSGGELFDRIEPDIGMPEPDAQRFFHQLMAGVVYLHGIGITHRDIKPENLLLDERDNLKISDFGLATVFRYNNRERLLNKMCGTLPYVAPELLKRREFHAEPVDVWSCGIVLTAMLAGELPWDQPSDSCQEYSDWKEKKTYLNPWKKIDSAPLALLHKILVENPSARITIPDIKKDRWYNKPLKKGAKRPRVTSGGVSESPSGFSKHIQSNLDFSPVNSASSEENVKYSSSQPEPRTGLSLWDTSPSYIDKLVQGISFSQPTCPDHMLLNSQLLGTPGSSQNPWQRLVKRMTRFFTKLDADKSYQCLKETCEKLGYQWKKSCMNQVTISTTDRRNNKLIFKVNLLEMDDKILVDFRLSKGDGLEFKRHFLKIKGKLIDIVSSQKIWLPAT

[1] = system: PDGF receptor tyrosine kinase Y572/574; test: PDGF receptor autophosphorylation in cells; assay type: cell-based; conditions: c-Src/NIH-3T3 cells; FIG. 7
Experimental: as §1, §2
This is thought not to be a direct Src substrate in cells.

FAK Tyr 925 = test: Intracellular phosphorylation levels: FAK Tyr 925; assay type: cell-based; conditions: c-Src/NIH-3T3 and HT-29 cells; FIG. 2
Experimental: as §1, §2

ZAP-70(h) = ZAP-70(h) (Homo sapiens, UniProt P43403); test: Inhibition of isolated kinases; assay type: biochemical; conditions: compound @ 10 μM
ZAP-70(h), sequence (P43403 whole entry): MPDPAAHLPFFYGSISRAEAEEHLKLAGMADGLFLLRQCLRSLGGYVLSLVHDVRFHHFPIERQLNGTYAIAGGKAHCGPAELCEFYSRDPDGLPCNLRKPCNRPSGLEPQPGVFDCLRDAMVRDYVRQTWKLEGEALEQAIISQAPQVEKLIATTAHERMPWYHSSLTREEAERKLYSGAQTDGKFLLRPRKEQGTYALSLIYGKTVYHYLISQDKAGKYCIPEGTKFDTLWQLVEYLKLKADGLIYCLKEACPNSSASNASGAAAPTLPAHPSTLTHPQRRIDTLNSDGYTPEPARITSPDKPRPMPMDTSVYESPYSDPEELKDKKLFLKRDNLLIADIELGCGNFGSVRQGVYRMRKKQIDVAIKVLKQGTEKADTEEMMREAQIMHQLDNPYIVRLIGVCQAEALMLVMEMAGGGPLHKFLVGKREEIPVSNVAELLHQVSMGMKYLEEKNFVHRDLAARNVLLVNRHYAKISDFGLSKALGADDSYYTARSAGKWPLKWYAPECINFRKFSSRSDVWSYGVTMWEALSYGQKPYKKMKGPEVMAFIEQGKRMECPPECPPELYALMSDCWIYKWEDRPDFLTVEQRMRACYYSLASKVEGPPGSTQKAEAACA
Text: (§3) Table 5 illustrates percent activity of isolated kinases in the presence of the AstraZeneca ATP-competitive inhibitor (KX-328, AZ-28) or KX2-391 relative to control (untreated) isolated kinases.

Lck(h) = Lck(h) (Homo sapiens, UniProt P06239); test: Inhibition of isolated kinases; assay type: biochemical; conditions: compound @ 10 μM
Lck(h), sequence (P06239 whole entry): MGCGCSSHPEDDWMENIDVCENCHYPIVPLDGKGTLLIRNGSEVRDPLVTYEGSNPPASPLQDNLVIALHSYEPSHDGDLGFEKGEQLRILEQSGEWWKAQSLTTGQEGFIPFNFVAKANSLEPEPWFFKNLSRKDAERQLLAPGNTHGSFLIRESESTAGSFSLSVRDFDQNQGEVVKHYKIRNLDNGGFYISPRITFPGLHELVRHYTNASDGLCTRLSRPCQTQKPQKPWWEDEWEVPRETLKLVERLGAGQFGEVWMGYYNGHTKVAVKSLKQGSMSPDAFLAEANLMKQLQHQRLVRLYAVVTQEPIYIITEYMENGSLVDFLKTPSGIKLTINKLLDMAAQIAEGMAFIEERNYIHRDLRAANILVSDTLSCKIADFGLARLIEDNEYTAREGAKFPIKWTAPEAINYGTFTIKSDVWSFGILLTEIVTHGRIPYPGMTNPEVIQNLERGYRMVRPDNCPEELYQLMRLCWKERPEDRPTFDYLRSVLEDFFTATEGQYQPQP
Text: as §3

EGFR(h) = EGFR(h) (Homo sapiens, UniProt P00533); test: Inhibition of isolated kinases; assay type: biochemical; conditions: compound @ 10 μM
Text: as §3

PI3 kinase = test: Inhibition of isolated kinases; assay type: biochemical; conditions: compound @ 10 μM
Text: as §3

Yes(h) = Yes(h) (Homo sapiens, UniProt P07947); test: Inhibition of isolated kinases; assay type: biochemical; conditions: compound @ 10 μM
Text: as §3

Lyn(h) = Lyn(h) (Homo sapiens, UniProt P07948); test: Inhibition of isolated kinases; assay type: biochemical; conditions: compound @ 10 μM
Text: as §3

MAPK2(h) = MAPK2(h) (Homo sapiens, UniProt P28482); test: Inhibition of isolated kinases; assay type: biochemical; conditions: compound @ 10 μM
MAPK2(h), sequence (P28482 whole entry): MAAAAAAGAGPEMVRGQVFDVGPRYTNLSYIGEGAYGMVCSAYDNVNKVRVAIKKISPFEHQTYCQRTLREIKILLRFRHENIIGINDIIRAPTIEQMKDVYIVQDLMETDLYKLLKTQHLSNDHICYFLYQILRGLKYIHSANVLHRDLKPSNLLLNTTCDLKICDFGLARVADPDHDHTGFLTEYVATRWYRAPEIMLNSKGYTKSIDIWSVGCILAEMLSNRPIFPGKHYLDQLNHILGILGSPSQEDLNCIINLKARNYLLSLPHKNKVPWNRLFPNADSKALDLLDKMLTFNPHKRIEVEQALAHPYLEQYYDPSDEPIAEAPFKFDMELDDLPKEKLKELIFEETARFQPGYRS
Text: as §3

Fyn(h) = Fyn(h) (Homo sapiens, UniProt P06241); test: Inhibition of isolated kinases; assay type: biochemical; conditions: compound @ 10 μM
Text: as §3

IR(h) = IR(h) (Homo sapiens, UniProt P06213); test: Inhibition of isolated kinases; assay type: biochemical; conditions: compound @ 10 μM
Text: as §3

Abl(h) = Abl(h) (Homo sapiens, UniProt P00519); test: Inhibition of isolated kinases; assay type: biochemical; conditions: compound @ 10 μM
Text: as §3

PDGFRβ(h) = PDGFRβ(h) (Homo sapiens, UniProt P09619); test: Inhibition of isolated kinases; assay type: biochemical; conditions: compound @ 10 μM
PDGFRβ(h), sequence (P09619 33-1106): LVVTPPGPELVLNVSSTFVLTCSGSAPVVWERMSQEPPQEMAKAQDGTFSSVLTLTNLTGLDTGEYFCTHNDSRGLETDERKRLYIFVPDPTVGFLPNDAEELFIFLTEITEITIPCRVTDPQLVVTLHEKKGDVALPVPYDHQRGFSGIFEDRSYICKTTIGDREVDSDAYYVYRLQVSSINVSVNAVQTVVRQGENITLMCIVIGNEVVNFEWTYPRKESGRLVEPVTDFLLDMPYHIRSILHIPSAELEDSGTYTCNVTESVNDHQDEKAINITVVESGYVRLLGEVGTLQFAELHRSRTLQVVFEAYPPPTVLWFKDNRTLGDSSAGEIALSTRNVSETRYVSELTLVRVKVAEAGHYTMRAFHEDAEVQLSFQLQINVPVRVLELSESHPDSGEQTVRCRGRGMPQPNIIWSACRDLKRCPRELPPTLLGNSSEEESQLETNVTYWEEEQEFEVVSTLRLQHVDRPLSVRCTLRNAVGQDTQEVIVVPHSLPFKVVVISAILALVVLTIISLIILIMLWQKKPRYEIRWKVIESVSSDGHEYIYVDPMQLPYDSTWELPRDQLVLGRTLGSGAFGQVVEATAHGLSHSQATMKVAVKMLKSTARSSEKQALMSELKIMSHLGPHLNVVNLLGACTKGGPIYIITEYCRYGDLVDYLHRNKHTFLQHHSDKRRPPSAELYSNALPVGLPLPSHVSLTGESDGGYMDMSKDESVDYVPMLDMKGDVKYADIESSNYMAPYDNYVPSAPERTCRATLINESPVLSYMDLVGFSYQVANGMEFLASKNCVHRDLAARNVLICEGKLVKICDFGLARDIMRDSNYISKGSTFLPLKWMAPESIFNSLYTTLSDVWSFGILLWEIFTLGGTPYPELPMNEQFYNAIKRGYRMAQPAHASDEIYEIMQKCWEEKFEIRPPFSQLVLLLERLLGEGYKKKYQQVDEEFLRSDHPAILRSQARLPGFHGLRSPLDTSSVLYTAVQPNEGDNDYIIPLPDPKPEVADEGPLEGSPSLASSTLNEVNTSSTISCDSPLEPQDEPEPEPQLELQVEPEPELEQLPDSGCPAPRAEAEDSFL
Text: as §3

FGFR2(h) = FGFR2(h) (Homo sapiens, UniProt P21802); test: Inhibition of isolated kinases; assay type: biochemical; conditions: compound @ 10 μM
Text: as §3

Pyk2(h) = Pyk2(h) (Homo sapiens, UniProt Q14289); test: Inhibition of isolated kinases; assay type: biochemical; conditions: compound @ 10 μM
Text: as §3

PKCα(h) = PKCα(h) (Homo sapiens, UniProt P17252); test: Inhibition of isolated kinases; assay type: biochemical; conditions: compound @ 10 μM
Text: as §3

IGF-1R(h) = IGF-1R(h) (Homo sapiens, UniProt P08069); test: Inhibition of isolated kinases; assay type: biochemical; conditions: compound @ 10 μM
IGF-1R(h), sequence (P08069 31-1367): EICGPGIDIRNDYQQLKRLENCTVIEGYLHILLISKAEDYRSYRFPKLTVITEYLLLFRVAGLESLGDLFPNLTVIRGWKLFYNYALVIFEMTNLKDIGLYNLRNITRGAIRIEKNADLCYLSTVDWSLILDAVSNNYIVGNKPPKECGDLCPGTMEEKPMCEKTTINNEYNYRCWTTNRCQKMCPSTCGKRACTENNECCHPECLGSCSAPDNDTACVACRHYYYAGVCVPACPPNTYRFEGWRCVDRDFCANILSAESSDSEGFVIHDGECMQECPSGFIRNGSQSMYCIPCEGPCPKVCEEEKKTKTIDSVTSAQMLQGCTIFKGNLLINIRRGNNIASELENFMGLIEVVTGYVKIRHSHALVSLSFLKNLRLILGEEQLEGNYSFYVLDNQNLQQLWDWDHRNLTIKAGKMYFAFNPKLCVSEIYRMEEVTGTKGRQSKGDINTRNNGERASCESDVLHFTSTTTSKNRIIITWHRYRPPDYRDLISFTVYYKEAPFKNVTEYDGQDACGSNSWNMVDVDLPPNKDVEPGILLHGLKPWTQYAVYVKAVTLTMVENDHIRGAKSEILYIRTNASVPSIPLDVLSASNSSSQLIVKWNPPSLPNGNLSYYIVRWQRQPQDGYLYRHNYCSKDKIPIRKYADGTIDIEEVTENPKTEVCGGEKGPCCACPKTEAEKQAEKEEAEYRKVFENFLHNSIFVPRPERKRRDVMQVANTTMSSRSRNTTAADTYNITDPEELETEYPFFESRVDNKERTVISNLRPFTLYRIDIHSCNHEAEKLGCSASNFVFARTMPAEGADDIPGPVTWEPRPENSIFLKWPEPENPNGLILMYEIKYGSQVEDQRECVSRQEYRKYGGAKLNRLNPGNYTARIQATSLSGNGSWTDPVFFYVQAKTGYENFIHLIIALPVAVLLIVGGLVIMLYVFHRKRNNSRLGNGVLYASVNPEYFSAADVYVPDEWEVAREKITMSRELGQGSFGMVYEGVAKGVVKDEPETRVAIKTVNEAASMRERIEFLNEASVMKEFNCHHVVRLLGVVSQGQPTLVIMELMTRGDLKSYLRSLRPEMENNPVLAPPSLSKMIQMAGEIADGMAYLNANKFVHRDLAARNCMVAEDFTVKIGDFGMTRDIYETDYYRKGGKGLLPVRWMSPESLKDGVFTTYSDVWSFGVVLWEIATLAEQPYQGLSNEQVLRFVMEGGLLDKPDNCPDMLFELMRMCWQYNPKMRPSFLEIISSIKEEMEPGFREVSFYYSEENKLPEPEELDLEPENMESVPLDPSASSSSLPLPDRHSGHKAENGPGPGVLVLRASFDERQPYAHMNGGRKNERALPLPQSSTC
Text: as §3

She Y239/240 = test: Intracellular phosphorylation levels: She Y239/240; assay type: cell-based; conditions: c-Src/NIH-3T3 and HT-29 cells; FIG. 3
Experimental: as §1, §2

O=C(Cc1ccc(-c2ccc(OCCN3CCOCC3)cc2)cn1)NCc1ccccc1 [KX2-391]
phosphorylation of Paxillin Y-31 (Src trans-phosphorylation) (Paxillin Y-31): inhibited
FAK autophosphorylation (Y397) (FAK Y397): no inhibition
percent activity of isolated kinase relative to control (untreated) (CHK1(h)): 105%
PDGF receptor autophosphorylation (Y572/574) [1]: Some effect
phosphorylation of FAK Tyr 925 (Src trans-phosphorylation) (FAK Tyr 925): inhibited
percent activity of isolated kinase relative to control (untreated) (ZAP-70(h)): 108%
percent activity of isolated kinase relative to control (untreated) (Lck(h)): 109%
percent activity of isolated kinase relative to control (untreated) (EGFR(h)): 134%
percent activity of isolated kinase relative to control (untreated) (PI3 kinase): 100%
percent activity of isolated kinase relative to control (untreated) (Yes(h)): 92%
percent activity of isolated kinase relative to control (untreated) (Lyn(h)): 113%
percent activity of isolated kinase relative to control (untreated) (MAPK2(h)): 112%
percent activity of isolated kinase relative to control (untreated) (Fyn(h)): 85%
percent activity of isolated kinase relative to control (untreated) (IR(h)): 112%
percent activity of isolated kinase relative to control (untreated) (Abl(h)): 120%
percent activity of isolated kinase relative to control (untreated) (PDGFRβ(h)): 110%
percent activity of isolated kinase relative to control (untreated) (FGFR2(h)): 94%
percent activity of isolated kinase relative to control (untreated) (Pyk2(h)): 97%
percent activity of isolated kinase relative to control (untreated) (PKCα(h)): 111%
percent activity of isolated kinase relative to control (untreated) (IGF-1R(h)): 101%
phosphorylation of She Y239/240 (Src trans-phosphorylation) (She Y239/240): inhibited
